Results as given in ChEMBL document CHEMBL4184317, “Discovery of Tetrahydroquinoxalines as Bromodomain and Extra-Terminal Domain (BET) Inhibitors with Selectivity for the Second Bromodomain” (J Med Chem, 2018).
Converted amounts (≈) assume the structure as drawn.

Key:
[1] = molecular target: T1, Bromodomain-containing protein 3 (Homo sapiens, UniProt Q15059); assay: Inhibition of BRD3 BD2 (unknown origin) after 30 mins by TR-FRET assay
[2] = molecular target: T2, Bromodomain testis-specific protein (Homo sapiens, UniProt Q58F21); assay: Inhibition of BRDT BD2 (unknown origin) after 30 mins by TR-FRET assay
[3] = Permeability of the compound by PAMPA; type: ADME; conditions: read-out: permeability
[4] = Solubility of the compound in pH 7.4 phosphate buffered saline by chemiluminescent nitrogen detection method; type: physicochemical
[5] = Solubility of the compound in FaSSIF at pH 6.5 after 16 hrs by HPLC method; type: physicochemical
[6] = tested on: Blood; assay: Antiinflammatory activity in human whole blood assessed as inhibition of LPS-induced MCP1 release preincubated for 30 mins followed by LPS challenge measured after 24 hrs by immunoassay; type: functional, tissue-based
[7] = molecular target: T3, Bromodomain-containing protein 4 (Homo sapiens, UniProt O60885); assay: Binding affinity to human partial length DNA-tagged BRD4 isoform long BD1 expressed in bacterial by BROMOscan method
[8] = molecular target: T4, Bromodomain-containing protein 2 (Homo sapiens, UniProt P25440); assay: Binding affinity to human partial length DNA-tagged BRD2 isoform 1 BD1 expressed in bacterial by BROMOscan method
Target sequence in this assay (P25440 whole entry, canonical isoform): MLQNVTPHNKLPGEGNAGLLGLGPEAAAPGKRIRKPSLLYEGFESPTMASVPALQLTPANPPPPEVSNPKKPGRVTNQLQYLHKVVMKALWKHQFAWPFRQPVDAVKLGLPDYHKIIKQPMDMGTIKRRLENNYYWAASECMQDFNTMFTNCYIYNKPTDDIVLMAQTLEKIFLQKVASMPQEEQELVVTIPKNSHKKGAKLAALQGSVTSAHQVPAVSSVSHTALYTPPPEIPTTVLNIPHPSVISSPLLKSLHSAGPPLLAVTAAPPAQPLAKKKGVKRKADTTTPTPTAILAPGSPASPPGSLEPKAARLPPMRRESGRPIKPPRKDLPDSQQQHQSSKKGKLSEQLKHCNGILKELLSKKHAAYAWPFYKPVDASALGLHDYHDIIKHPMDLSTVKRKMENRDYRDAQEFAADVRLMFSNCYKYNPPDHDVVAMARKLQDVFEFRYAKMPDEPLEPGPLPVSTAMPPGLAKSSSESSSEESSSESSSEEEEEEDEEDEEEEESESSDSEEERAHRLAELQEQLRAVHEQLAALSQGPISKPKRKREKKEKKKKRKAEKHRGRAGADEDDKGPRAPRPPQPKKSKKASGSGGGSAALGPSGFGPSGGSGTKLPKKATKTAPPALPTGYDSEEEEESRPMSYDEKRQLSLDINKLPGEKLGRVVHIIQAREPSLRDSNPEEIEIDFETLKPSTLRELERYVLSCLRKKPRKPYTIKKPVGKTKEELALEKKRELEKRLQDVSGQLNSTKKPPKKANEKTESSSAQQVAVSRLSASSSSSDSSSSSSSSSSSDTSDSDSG

[9] = molecular target: T4, Bromodomain-containing protein 2; assay: Binding affinity to human partial length DNA-tagged BRD2 isoform 1 BD2 expressed in bacterial by BROMOscan method
Target sequence in this assay (P25440 whole entry, canonical isoform): as above

[10] = molecular target: T1, Bromodomain-containing protein 3; assay: Binding affinity to human partial length DNA-tagged BRD3 BD1 expressed in bacterial by BROMOscan method
[11] = molecular target: T2, Bromodomain testis-specific protein; assay: Binding affinity to human partial length DNA-tagged BRDT isoform b BD1 expressed in bacterial by BROMOscan method
[12] = molecular target: T5, Peregrin (Homo sapiens, UniProt P55201); assay: Binding affinity to human partial length DNA-tagged BRPF1 expressed in bacterial by BROMOscan method
T5 sequence (P55201 whole entry): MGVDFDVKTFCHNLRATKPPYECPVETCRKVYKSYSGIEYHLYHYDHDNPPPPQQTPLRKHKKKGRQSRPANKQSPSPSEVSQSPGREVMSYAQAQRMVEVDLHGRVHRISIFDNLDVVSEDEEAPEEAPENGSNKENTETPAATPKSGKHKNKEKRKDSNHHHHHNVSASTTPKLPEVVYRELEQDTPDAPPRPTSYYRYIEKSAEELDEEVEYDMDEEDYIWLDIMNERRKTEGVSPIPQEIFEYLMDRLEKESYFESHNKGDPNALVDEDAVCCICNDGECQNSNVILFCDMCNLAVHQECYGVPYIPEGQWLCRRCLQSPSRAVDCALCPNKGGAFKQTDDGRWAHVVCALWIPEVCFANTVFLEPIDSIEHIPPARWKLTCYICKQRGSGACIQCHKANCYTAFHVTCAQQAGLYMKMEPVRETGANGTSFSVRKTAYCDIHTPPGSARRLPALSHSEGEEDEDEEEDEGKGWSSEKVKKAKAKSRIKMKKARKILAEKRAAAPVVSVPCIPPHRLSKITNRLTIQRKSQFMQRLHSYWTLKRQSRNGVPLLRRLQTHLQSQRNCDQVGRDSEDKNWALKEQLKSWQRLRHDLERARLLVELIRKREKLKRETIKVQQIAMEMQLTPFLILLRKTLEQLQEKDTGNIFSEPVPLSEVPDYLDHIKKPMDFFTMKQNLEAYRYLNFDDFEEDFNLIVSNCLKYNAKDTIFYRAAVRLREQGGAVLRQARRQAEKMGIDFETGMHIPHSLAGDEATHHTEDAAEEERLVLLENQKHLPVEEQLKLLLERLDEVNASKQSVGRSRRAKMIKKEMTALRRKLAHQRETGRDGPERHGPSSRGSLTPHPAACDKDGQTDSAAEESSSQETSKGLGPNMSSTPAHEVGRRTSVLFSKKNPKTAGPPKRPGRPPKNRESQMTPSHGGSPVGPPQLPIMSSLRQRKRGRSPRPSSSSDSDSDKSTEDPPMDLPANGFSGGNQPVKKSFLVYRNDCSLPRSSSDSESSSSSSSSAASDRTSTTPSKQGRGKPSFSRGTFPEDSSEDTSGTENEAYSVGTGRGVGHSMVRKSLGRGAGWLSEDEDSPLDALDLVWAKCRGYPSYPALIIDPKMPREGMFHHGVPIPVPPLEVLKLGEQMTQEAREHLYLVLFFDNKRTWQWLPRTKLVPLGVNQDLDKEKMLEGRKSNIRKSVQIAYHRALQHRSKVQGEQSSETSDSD

[13] = molecular target: ATPase family AAA domain-containing protein 2 (Homo sapiens, UniProt Q6PL18); assay: Binding affinity to human partial length DNA-tagged ATAD2A expressed in bacterial by BROMOscan method
[14] = molecular target: Bromodomain adjacent to zinc finger domain protein 2A (Homo sapiens, UniProt Q9UIF9); assay: Binding affinity to human partial length DNA-tagged BAZ2A expressed in bacterial by BROMOscan method
[15] = molecular target: Bromodomain adjacent to zinc finger domain protein 2B (Homo sapiens, UniProt Q9UIF8); assay: Binding affinity to human partial length DNA-tagged BAZ2B expressed in bacterial by BROMOscan method
[16] = molecular target: Bromodomain-containing protein 8 (Homo sapiens, UniProt Q9H0E9); assay: Binding affinity to DNA-tagged BRD8 (unknown origin) by BROMOscan method
[17] = molecular target: T6, Protein polybromo-1 (Homo sapiens, UniProt Q86U86); assay: Binding affinity to human partial length DNA-tagged PBRM1 BD1 expressed in bacteria by BROMOscan method
T6 sequence (Q86U86 whole entry): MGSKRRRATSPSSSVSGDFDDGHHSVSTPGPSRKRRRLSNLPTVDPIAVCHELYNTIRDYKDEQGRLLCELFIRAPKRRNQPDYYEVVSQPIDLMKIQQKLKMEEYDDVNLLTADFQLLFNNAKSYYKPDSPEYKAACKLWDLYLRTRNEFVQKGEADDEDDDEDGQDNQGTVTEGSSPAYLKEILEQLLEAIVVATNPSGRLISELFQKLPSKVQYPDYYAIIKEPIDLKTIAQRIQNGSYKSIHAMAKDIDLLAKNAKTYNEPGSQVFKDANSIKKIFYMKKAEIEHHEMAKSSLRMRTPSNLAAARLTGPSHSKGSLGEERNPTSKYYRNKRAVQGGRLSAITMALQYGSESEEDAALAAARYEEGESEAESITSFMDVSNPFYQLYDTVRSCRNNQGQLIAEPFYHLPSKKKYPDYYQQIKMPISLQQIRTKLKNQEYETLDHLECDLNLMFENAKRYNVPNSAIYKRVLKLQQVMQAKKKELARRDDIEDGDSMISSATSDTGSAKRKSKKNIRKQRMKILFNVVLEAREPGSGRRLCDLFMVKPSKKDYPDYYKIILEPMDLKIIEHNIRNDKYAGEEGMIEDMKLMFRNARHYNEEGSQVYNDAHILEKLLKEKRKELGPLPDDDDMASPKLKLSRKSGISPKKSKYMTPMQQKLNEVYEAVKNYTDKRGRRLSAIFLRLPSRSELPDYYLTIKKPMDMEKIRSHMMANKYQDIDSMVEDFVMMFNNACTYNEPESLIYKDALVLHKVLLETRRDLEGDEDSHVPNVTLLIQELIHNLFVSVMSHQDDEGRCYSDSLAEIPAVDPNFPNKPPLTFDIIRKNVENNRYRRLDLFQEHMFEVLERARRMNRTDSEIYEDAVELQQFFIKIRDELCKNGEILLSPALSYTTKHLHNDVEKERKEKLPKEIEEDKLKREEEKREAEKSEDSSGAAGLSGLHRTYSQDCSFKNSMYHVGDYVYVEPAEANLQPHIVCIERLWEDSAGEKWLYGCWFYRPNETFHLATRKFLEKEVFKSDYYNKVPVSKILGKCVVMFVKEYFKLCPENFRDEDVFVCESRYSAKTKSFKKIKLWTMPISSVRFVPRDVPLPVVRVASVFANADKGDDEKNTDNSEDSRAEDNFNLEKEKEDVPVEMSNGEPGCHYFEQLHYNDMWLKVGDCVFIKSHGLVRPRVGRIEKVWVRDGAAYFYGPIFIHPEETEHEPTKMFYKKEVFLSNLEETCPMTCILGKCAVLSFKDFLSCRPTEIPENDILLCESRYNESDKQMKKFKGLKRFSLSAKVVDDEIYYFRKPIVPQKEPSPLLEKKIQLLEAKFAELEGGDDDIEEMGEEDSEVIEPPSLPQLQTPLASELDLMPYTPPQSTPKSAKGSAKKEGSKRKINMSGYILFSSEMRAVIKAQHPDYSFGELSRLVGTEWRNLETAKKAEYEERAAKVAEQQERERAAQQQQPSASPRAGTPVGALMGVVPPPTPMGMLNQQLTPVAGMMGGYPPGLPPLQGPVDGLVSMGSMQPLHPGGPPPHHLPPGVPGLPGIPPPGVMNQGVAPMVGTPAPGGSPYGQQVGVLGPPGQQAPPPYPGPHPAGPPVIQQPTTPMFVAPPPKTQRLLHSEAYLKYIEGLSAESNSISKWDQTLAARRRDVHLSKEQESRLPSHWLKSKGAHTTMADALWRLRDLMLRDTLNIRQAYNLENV

[18] = molecular target: T6, Protein polybromo-1; assay: Binding affinity to human partial length DNA-tagged PBRM1 BD5 expressed in bacteria by BROMOscan method
[19] = molecular target: Histone acetyltransferase KAT2B (Homo sapiens, UniProt Q92831); assay: Binding affinity to human partial length DNA-tagged PCAF expressed in mammalian expression system by BROMOscan method
[20] = molecular target: E3 ubiquitin-protein ligase TRIM33 (Homo sapiens, UniProt Q9UPN9); assay: Binding affinity to human partial length DNA-tagged TRIM33(PHD,Bromo.) expressed in bacteria by BROMOscan method
E3 ubiquitin-protein ligase TRIM33, sequence (Q9UPN9 whole entry, canonical isoform): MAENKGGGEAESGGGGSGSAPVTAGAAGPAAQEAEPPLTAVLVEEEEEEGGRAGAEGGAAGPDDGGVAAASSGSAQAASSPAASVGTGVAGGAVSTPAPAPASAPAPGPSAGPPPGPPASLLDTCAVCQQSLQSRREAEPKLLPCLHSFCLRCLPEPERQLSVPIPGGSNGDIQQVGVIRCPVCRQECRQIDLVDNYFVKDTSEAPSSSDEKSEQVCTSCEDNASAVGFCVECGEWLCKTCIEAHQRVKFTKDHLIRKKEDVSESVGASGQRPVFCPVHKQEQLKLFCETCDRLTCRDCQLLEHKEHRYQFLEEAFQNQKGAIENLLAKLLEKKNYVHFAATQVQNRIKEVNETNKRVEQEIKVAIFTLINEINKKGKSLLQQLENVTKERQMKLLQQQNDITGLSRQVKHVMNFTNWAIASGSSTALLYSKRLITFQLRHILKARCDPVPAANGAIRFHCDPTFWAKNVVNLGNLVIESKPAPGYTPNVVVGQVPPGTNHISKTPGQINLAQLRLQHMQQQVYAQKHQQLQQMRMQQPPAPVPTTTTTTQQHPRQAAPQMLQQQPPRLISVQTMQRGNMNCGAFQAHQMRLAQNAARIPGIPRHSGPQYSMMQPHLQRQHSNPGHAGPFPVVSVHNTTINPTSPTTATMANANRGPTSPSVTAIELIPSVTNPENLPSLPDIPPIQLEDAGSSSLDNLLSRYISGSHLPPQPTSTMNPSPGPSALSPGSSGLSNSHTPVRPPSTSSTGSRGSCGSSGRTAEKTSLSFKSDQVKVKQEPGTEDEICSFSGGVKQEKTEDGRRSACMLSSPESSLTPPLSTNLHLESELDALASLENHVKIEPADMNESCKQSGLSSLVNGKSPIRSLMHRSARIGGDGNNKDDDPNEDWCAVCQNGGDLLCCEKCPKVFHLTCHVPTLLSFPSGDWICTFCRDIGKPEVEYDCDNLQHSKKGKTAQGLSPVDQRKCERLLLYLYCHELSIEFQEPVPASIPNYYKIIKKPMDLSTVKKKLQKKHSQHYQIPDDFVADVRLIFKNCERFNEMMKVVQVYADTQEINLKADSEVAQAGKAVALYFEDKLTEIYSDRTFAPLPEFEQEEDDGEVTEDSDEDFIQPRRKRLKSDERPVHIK

[21] = molecular target: T3, Bromodomain-containing protein 4; assay: Selectivity ratio of Kd for human partial length DNA-tagged BRD4 isoform long BD1 to Kd for human partial length DNA-tagged BRD4 isoform long BD2
[22] = molecular target: T4, Bromodomain-containing protein 2; assay: Selectivity ratio of Kd for human partial length DNA-tagged BRD2 isoform 1 BD1 to Kd for human partial length DNA-tagged BRD2 isoform 1 BD2
[23] = organism: Homo sapiens; assay: Selectivity ratio of Kd for human partial length DNA-tagged BRPF1 to Kd for human partial length DNA-tagged BRD4 isoform long BD2
[24] = organism: Homo sapiens; assay: Selectivity ratio of IC50 for human BRD2 BD1 to IC50 for human BRD2 BD2
[25] = organism: Homo sapiens; assay: Selectivity ratio of IC50 for BRD3 BD1 (unknown origin) to IC50 for BRD3 BD2 (unknown origin)
[26] = organism: Homo sapiens; assay: Selectivity ratio of IC50 for BRDT BD1 (unknown origin) to IC50 for BRDT BD2 (unknown origin)

T1 sequence (Q15059 whole entry): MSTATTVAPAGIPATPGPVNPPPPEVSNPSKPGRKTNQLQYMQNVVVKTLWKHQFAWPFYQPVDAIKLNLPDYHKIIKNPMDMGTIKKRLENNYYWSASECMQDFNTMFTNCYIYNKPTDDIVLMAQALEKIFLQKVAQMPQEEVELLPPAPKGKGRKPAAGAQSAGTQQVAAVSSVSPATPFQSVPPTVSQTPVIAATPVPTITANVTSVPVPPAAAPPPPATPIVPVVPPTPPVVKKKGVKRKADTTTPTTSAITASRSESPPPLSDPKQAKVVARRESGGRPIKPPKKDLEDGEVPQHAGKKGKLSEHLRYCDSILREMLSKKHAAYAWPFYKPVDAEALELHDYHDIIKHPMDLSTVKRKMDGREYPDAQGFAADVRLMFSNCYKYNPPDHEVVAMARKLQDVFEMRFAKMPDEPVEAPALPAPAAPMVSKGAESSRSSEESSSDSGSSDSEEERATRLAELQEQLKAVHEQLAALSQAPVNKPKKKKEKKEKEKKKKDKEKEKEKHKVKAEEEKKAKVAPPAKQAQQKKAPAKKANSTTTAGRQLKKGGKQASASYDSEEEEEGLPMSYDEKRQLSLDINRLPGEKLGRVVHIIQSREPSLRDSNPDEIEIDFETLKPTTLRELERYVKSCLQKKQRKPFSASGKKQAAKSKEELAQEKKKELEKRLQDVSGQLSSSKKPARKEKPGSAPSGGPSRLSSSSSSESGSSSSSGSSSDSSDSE

`CC(=O)N1c2ccc(C3=CCNCC3)cc2N(Cc2ccccc2CO)C[C@@H]1C1CC1` showed an IC50 [1] of 50.1 nM, an IC50 [2] of 200 nM and a Papp [3] of 11 ×10⁻⁶ cm/s. The solubility [4] was at least 418 µM, the solubility at 16 h [5] was 386 µg/mL (≈ 924 µM) and the IC50 [6] was 1000 nM. It also gave a Kd [7] of 1550 nM, a Kd [8] of 1320 nM and a Kd [9] of 32.4 nM. For the same molecule, the Kd [10] was 912 nM, the Kd [11] was 1860 nM and the Kd [12] was 2450 nM. For the same molecule, the Kd [13] was over 30200 nM, the Kd [14] was over 30200 nM and the Kd [15] was over 30200 nM. The Kd [16] was over 30200 nM, the Kd [17] was over 30200 nM and the Kd [18] was over 30200 nM. The Kd [19] was over 30200 nM, the Kd [20] was over 30200 nM and the Selectivity ratio [21] was 229. For the same molecule, the Selectivity ratio [22] was 41, the Selectivity ratio [23] was 372 and the Ratio IC50 [24] was 8. The Ratio IC50 [25] was 25 and the Ratio IC50 [26] was 8.
